Consider 7 molecules from ChEMBL document CHEMBL1649078, “Novel antiviral C5-substituted pyrimidine acyclic nucleoside phosphonates selected as human thymidylate kinase substrates” (J Med Chem, 2011).

For the assay, the system named is Vaccinia virus. Description: Antiviral activity against Vaccinia virus infected in human HEL cells assessed as reduction of virus-induced cytopathogenicity after 7 days. It is filed as functional, organism-based. The conditions noted are these: Orthopoxvirus vaccinia, 168 h. (Damage to the host cells serves as the signal in cytopathic effect assays.)

Each structure is given as a SMILES string.

As a reminder, the EC50 is the concentration giving half of the maximal effect. As for `Cc1cn(C/C=C/CP(=O)(OCOC(=O)C(C)(C)C)OCOC(=O)C(C)(C)C)c(=O)[nH]c1=O`, the EC50 was 30 µM.
As for `Cc1cn(C/C=C\CP(=O)(OCOC(=O)C(C)(C)C)OCOC(=O)C(C)(C)C)c(=O)[nH]c1=O`, the figure is more than 40 µM; as for `CC(C)(C)C(=O)OCOP(=O)(C/C=C/Cn1cc(Br)c(=O)[nH]c1=O)OCOC(=O)C(C)(C)C`, 33 µM.
Turning to `CC(C)(C)C(=O)OCOP(=O)(C/C=C\Cn1cc(Br)c(=O)[nH]c1=O)OCOC(=O)C(C)(C)C`, the EC50 was found to be 90 µM.
On to `O=c1[nH]c(=O)n([C@H]2C[C@H](O)[C@@H](CO)O2)cc1/C=C/Br` [BRIVUDINE], for which the EC50 worked out at 1.5 µM.
For the molecule `Nc1ccn(C[C@@H](CO)OCP(=O)(O)O)c(=O)n1` [CIDOFOVIR], the EC50 is 6 µM.
Regarding `Nc1nc2c(ncn2COC(CO)CO)c(=O)[nH]1` [GANCICLOVIR], the EC50 was more than 100 µM.
